The Km is the substrate concentration at which the rate is half of its maximum.

What all share (assay type): functional, cell-based
Data set [1] deals with T1, Solute carrier organic anion transporter family member 1A3 (Rattus norvegicus, UniProt P70502).
T1 sequence (P70502 whole entry): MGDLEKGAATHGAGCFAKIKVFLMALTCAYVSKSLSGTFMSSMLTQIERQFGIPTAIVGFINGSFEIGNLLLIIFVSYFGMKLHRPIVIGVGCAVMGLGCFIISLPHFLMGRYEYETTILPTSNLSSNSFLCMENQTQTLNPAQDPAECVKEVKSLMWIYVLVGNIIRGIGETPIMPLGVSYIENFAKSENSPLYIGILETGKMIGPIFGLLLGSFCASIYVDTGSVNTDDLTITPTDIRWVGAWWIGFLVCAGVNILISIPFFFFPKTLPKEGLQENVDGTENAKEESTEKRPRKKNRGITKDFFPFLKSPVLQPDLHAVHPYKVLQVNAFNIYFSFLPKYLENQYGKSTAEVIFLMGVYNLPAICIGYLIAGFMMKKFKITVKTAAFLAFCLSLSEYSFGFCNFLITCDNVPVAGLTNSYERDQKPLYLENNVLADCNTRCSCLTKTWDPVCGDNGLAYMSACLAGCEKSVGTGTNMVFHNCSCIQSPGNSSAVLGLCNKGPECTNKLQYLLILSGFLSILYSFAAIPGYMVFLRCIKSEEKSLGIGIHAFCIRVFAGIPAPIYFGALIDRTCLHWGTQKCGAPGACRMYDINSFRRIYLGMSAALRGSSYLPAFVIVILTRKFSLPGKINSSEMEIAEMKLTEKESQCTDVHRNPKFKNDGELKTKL
Put plainly: TP_TRANSPORTER: inhibition of MTX uptake (MTX: 0.026 uM, BSP: 100 uM) in OAT-K1-expressing LLC-PK1 cells. The conditions noted are these: pig, llc-pk1, 100 µM.

Data set [2] concerns the target T1, Solute carrier organic anion transporter family member 1A3. The data set is described as follows: TP_TRANSPORTER: inhibition of MTX uptake (MTX: 0.026 uM, Folic acid: 100 uM) in OAT-K1-expressing LLC-PK1 cells. To be noted: pig, llc-pk1, 100 µM.
Substrate in data set [3]: CN(Cc1cnc2nc(N)nc(N)c2n1)c1ccc(C(=O)N[C@@H](CCC(=O)O)C(=O)O)cc1
The data set is described as follows: TP_TRANSPORTER: uptake in OAT-K1-expressing LLC-PK1 cells.

Turning to `O=C1OC(c2ccc(O)c(S(=O)(=O)[O-])c2)(c2ccc(O)c(S(=O)(=O)[O-])c2)c2c(Br)c(Br)c(Br)c(Br)c21.[Na+].[Na+]` [SULFOBROMOPHTHALEIN SODIUM], in data set [1], the Activity result was “inhibitor [(at a rough estimate) 35 % of control]”.

With `Nc1nc2ncc(CNc3ccc(C(=O)N[C@@H](CCC(=O)O)C(=O)O)cc3)nc2c(=O)[nH]1` [FOLIC ACID], the Activity entry in data set [2] was “inhibitor [(at a rough estimate) 35 % of control]”.

B1: Solute carrier organic anion transporter family member 1A3 (Rattus norvegicus) (protein)
chain: MGDLEKGAATHGAGCFAKIKVFLMALTCAYVSKSLSGTFMSSMLTQIERQFGIPTAIVGFINGSFEIGNLLLIIFVSYFGMKLHRPIVIGVGCAVMGLGCFIISLPHFLMGRYEYETTILPTSNLSSNSFLCMENQTQTLNPAQDPAECVKEVKSLMWIYVLVGNIIRGIGETPIMPLGVSYIENFAKSENSPLYIGILETGKMIGPIFGLLLGSFCASIYVDTGSVNTDDLTITPTDIRWVGAWWIGFLVCAGVNILISIPFFFFPKTLPKEGLQENVDGTENAKEESTEKRPRKKNRGITKDFFPFLKSPVLQPDLHAVHPYKVLQVNAFNIYFSFLPKYLENQYGKSTAEVIFLMGVYNLPAICIGYLIAGFMMKKFKITVKTAAFLAFCLSLSEYSFGFCNFLITCDNVPVAGLTNSYERDQKPLYLENNVLADCNTRCSCLTKTWDPVCGDNGLAYMSACLAGCEKSVGTGTNMVFHNCSCIQSPGNSSAVLGLCNKGPECTNKLQYLLILSGFLSILYSFAAIPGYMVFLRCIKSEEKSLGIGIHAFCIRVFAGIPAPIYFGALIDRTCLHWGTQKCGAPGACRMYDINSFRRIYLGMSAALRGSSYLPAFVIVILTRKFSLPGKINSSEMEIAEMKLTEKESQCTDVHRNPKFKNDGELKTKL
For B1, the Km in data set [3] amounted to 1 µM.

The values are drawn from ChEMBL document CHEMBL2074084, “Cloning and functional characterization of a novel rat organic anion transporter mediating basolateral uptake of methotrexate in the kidney” (J Biol Chem, 1996).
